# Experimental data: a melting point compilation (Tetko et al.; mined from patent text by program, amines drawn as free bases though some values may be those of a salt)
row,Compound,melting point [°C]
1,CCn1c(=O)sc2cc(N3C[C@H](C(=O)NC)OC3=O)ccc21,227 to 229
2,O=C(Nc1ccccc1Oc1ccc(Cl)cc1)C1CCNCC1,138 to 140
3,COC1=CC(=O)c2ccccc2C1=O,182 to 183
4,Cc1ccccc1-c1cnc(Nc2ccccn2)s1,155 to 160
5,Cc1cc(Oc2ccc(C#CC(C)N(O)C(N)=O)o2)ccc1F (stereo unspecified),131 to 132
6,COc1ccc2c(c1CNC(=O)OCC1c3ccccc3-c3ccccc31)Oc1c(ccc(OC)c1CC(=O)O)C2(C)C,134 to 136
7,CCN(CC)S(=O)(=O)c1cc(-c2csc(=Nc3ccc(Cl)cc3)n2C)ccc1Cl,198
8,Cc1c(C(=O)Nc2ccc(N3CCC(O)CC3)c(C#N)c2)cnn1-c1ccccc1,182
9,CC1(C)NCC(c2ccccc2)=NO1,93 to 95
10,c1ccc(-c2cnns2)cc1,46 to 48
11,COc1ccccc1Nc1nc(-c2ccccc2)c(C(=O)c2sc(Nc3ccccc3OC)nc2-c2ccccc2)s1,> 285
12,CN(C(=O)Cc1ccc(Cl)c(Cl)c1)[C@@H]1Cc2ccccc2C[C@H]1N1CCCC1 (relative stereo),161 to 164
13,CC(C(=O)N(C)C)n1ccc(-c2cc(Cl)ccc2Cl)n1 (stereo unspecified),73.5 to 76.5
14,CCc1c(CC#N)ccc(OCc2ccccc2)c1OCc1ccccc1,44 to 47.5
15,CC1(C)CC(SCc2cc3c(cc2Cl)OCO3)=NO1,88
16,COC(=O)c1cccc(CC(=O)Nc2cccc(/C=C/c3nc(C4CCC4)cs3)c2)c1,119 to 120
17,CC(C)(C)OC(=O)Nc1ccc(I)cc1N,127 to 130
18,CCOc1ncc(I)cc1C(=O)OC,67 to 69
19,CCc1cc(C(C)=O)c(OC)cc1OCc1cccc(C#N)c1,124 to 126
20,CC(C)(C)OC(=O)CC1=CCC(=O)Nc2ccccc21,136 to 138
21,Cc1ccccc1-c1cc(C(=O)NC(=N)N)c2ccc(O)cc2n1,202 to 208

row,Compound,melting point [°C]
1,Cc1ccccc1NC(=O)CN1C[C@@H](C)N(c2ncnc3sccc23)[C@@H](C)C1,174 to 175
2,Cc1cc(NCCCCCCBr)ccc1O,144 to 146
3,CC(=O)N(c1cc2occc(=O)c2cc1Oc1ccccc1)S(C)(=O)=O,166 to 169
4,COc1cccc(CNc2ccc(C(C)=O)cc2)c1OCCCC(=O)O,85 to 95
5,COc1cc(F)c(C)cc1[N+](=O)[O-],71 to 74
6,Cc1cccc2c1CCCC2c1c[nH]cn1 (stereo unspecified),135
7,COc1cc2ncc(C#N)c(Nc3ccc4ncccc4c3)c2cc1OC,241 to 243
8,FC(F)(F)Oc1ccc(Nc2nc(Cl)nc(Cl)n2)cc1,119 to 122
9,CC(c1ccc(F)c(Br)c1)N(O)C(N)=O (stereo unspecified),125
10,Cc1nc2c(s1)C(=O)N(C(C)(C)C)C2=O,106
11,Clc1ccc(C(=Cc2ccc(Cl)cc2Cl)CBr)cc1,128
12,CCNC(=O)CC1CN=C(c2cc3cc(Oc4ccc(S(C)(=O)=O)nc4)cc(CC)c3[nH]2)S1 (stereo unspecified),227 to 229
13,CN(C)c1ccc(-c2cccc3c2C2(COc4cc5c(cc42)CCO5)C(=O)N3Cc2ccc(C(F)(F)F)o2)cn1 (stereo unspecified),223 to 225
14,Cn1cc(C2=C(c3c4n(c5ccccc35)CC(NC(=O)OC(C)(C)C)CC4)C(=O)OC2=O)c2ccccc21 (stereo unspecified),141 to 145
15,C=C(c1cn(-c2c(Cl)cc(C(F)(F)F)cc2Cl)nc1C#N)C(F)(F)F,103 to 104
16,Nc1ccc2nc(-c3ccccc3)nn2c1,201
17,COc1c2c(cc3c1OCO3)C(O)CN(C)C2 (stereo unspecified),151 to 153
18,O=C(O)c1ccc(-c2c3ccccc3nn2Cc2ccccc2)cc1,159 to 163
19,C#CCN1C(=O)CN(C)c2ccc(-c3ncc(C(F)(F)F)cc3Cl)cc21,128 to 129
20,O=C(Cl)c1ccc(OCc2ccccc2)c(OCc2ccccc2)c1,92.5 to 94.5
